From ChEMBL document CHEMBL1201862, “PubChem BioAssay data set” (2004)
Calls of active or inactive are those of the source.

Legend:
[1] = molecular target: DNA dC->dU-editing enzyme APOBEC-3A (Homo sapiens, UniProt P31941); assay: Dose Response confirmation of small molecule APOBEC3A DNA Deaminase Inhibitors via a fluorescence-based single-stranded DNA deaminase assay. [Related pubchem assays (depositor defined):AID493011, AID493024]; format: functional
[2] = molecular target: DNA dC->dU-editing enzyme APOBEC-3G (Homo sapiens, UniProt Q9HC16); format: functional;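 also: Dose-response counterscreen measuring inhibition of APOBEC3G DNA deaminase activity, run while confirming APOBEC3A inhibitors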
Sequence of DNA dC->dU-editing enzyme APOBEC-3G (Q9HC16 whole entry): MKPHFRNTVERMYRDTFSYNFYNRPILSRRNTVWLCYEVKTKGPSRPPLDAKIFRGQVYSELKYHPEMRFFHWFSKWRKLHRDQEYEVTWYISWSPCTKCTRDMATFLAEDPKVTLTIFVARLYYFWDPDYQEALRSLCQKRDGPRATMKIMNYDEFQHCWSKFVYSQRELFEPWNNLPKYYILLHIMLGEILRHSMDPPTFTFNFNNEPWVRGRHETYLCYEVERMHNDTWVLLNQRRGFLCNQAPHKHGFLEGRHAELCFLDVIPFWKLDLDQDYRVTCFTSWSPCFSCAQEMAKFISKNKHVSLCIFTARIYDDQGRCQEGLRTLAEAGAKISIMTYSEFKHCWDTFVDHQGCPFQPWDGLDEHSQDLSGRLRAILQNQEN

[3] = cells; format: functional, cell-based
[4] = molecular target: Dual specificity tyrosine-phosphorylation-regulated kinase 1A (Rattus norvegicus, UniProt Q63470); format: biochemical, Homo sapiens
[5] = molecular target: T1, Carboxy-terminal domain RNA polymerase II polypeptide A small phosphatase 1 (Homo sapiens, UniProt Q9GZU7); assay: CTDSP1 inhibitors, concentration-response, biochemical, absorbance readout, ultra-high-throughput screen actives (AID 540297); format: functional
T1 sequence (Q9GZU7 whole entry): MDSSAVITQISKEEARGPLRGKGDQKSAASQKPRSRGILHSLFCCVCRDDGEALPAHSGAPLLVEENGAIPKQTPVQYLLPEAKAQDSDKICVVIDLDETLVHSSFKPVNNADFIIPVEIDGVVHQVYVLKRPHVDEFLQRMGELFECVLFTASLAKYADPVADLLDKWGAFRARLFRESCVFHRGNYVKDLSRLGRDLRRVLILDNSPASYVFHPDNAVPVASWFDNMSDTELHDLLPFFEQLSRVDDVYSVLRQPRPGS

[6] = molecular target: T2, Protein skinhead-1 (Caenorhabditis elegans, UniProt P34707); format: functional
T2 sequence (P34707 whole entry): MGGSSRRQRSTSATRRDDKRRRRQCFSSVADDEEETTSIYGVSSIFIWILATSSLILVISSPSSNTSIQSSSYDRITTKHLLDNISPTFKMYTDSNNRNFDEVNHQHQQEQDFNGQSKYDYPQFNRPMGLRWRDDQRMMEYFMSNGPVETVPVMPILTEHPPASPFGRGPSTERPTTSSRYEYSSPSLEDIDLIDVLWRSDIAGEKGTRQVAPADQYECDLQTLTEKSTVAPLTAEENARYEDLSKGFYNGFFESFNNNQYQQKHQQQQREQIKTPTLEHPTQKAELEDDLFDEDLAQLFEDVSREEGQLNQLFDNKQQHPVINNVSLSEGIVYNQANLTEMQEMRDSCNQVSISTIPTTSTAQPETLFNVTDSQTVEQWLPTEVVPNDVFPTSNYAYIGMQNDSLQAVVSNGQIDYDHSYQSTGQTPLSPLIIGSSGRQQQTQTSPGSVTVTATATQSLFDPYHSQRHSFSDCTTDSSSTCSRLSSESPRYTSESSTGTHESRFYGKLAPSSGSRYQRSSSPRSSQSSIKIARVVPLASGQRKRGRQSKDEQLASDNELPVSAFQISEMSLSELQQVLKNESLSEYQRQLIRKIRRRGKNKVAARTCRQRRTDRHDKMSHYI

[7] = molecular target: T3, Short transient receptor potential channel 4 (Mus musculus, UniProt Q9QUQ5); assay: block of DAMGO-driven TRPC4 calcium entry – cell-based, HEK293 TRPC4/mu-opioid, Fluo-4 calcium, dose response (AID 434942); format: functional;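 also: potency of inhibitors blocking the TRPC4 calcium response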
T3 sequence (Q9QUQ5 whole entry): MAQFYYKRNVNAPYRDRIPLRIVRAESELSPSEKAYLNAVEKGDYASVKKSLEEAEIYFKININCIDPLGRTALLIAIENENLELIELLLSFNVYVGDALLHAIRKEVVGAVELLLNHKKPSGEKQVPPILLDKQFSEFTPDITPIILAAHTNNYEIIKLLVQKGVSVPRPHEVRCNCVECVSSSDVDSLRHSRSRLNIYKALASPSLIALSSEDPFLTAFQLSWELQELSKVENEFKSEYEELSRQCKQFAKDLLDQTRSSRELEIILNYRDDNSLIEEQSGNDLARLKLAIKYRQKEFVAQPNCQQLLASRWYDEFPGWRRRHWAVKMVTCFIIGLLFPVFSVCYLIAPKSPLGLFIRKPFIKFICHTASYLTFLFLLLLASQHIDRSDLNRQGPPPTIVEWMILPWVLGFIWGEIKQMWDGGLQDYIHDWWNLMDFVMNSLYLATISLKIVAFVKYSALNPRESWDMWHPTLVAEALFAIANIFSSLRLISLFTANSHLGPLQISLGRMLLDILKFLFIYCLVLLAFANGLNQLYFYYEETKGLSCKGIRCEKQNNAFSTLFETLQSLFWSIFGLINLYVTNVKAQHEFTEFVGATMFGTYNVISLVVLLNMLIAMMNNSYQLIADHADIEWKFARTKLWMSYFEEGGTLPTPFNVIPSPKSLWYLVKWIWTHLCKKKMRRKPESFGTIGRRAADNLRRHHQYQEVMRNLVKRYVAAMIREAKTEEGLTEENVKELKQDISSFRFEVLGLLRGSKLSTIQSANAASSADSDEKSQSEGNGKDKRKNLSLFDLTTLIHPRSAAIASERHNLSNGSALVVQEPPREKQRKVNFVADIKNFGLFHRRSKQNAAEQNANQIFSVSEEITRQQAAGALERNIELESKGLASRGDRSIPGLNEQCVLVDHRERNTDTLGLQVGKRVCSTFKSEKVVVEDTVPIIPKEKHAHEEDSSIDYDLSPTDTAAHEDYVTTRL

[8] = molecular target: Nonstructural protein 1 (Influenza A virus, UniProt Q194T2); format: functional, Influenza A virus (A/California/07/2009(H1N1))
Sequence of Nonstructural protein 1 (Q194T2 whole entry): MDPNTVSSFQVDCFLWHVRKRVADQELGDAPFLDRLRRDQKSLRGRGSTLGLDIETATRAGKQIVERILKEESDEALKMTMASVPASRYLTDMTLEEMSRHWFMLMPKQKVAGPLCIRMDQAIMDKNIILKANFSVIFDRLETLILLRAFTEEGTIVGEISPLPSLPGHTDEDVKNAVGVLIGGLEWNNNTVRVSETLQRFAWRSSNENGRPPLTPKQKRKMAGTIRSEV

[9] = A cytotoxicity screen of small molecule inhibitors of the PhoP region in Salmonella typhi identified in the primary screen. [Related pubchem assays: 1850, 1864, 1985 ]; format: functional
[10] = molecular target: T4, Heat shock factor protein 1 (Mus musculus, UniProt P38532); assay: decrease of HSF1-responsive luciferase luminescence – cell-based, NIH3T3, dose retest, confirmation (AID 2382); format: functional;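 also: NIH3T3 fibroblasts with HSF1-driven luciferase reporter stressed by proteasome inhibitor MG132; luminescence from HSF1-driven luciferase expression after 8 hours of MG132 stress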
T4 sequence (P38532 whole entry): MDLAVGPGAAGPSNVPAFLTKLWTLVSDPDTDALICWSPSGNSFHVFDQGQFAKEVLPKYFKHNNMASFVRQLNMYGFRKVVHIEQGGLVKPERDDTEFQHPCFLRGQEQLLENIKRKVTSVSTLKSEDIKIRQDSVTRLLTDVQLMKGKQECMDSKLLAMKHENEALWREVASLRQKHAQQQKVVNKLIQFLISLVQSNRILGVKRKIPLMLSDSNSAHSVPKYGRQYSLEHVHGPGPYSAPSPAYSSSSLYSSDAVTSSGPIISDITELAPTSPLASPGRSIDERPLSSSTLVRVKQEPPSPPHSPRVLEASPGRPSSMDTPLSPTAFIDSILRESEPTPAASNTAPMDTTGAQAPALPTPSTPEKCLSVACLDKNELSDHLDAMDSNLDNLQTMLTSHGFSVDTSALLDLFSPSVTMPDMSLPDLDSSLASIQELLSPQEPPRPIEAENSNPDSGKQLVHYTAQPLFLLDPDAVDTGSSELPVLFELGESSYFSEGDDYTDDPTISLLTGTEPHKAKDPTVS

[11] = THP-1 cell cytotoxicity, dose response, cytotoxicity control for non-replicating M. tuberculosis project (AID 489025); format: functional
[12] = Vero E6 cell cytotoxicity, dose response, cytotoxicity control for non-replicating M. tuberculosis project, secondary assay (AID 492998); format: functional, VeroE6; settings: Vero C1008
[13] = cells; format: functional
[14] = Luminescence Cell-Based Dose Retest to Confirm Inhibitors of Cancer Stem Cells. [Related pubchem assays (depositor defined):AID2717, AID2721]; format: functional; settings: Homo sapiens
[15] = HEK-293T viability loss after treatment – luminescence, T-cell screen hits, cytotoxicity control for TCR NF-kB inhibitor project, dose response (AID 489026); format: functional, cell-based;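 also: cells exposed to compound about 14 hours before the viability readout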
[16] = molecular target: Heat shock protein HSP 90-alpha (Homo sapiens, UniProt P07900); format: functional, organism-based
[17] = reduction of Shn3 3'UTR-driven luciferase in osteoblasts – cell-based, Clone20 osteoblasts, firefly luciferase, cherry-picked, dose response (AID 624132); format: functional;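 also: firefly luciferase luminescence from reporter carrying the Shn3 3'UTR in osteoblasts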
[18] = non-specific 3'UTR reporter inhibition in Clone20-Shn3RL – cell-based, Renilla luciferase, cherry-picked, counter-screen for Shn3 inhibitor project, dose response (AID 624133); format: functional
[19] = Trypanosoma cruzi growth suppression in host cells – NIH3T3 host cells, beta-gal luminescence, confirmation (AID 2044); format: functional, cell-based;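 also: intracellular parasites grown in NIH/3T3 mouse fibroblasts as host cells; luminescent beta-galactosidase reporter signal from transgenic T. cruzi replicating inside host cells; inhibitors lower the luminescence signal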
[20] = NIH3T3 cell viability loss – ATP luminescence, mouse fibroblasts, counter-screen, dose response (AID 2010); format: functional, cell-based;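 also: cells exposed to compound for about 90 hours before reading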

Sequence of DNA dC->dU-editing enzyme APOBEC-3A (P31941 whole entry): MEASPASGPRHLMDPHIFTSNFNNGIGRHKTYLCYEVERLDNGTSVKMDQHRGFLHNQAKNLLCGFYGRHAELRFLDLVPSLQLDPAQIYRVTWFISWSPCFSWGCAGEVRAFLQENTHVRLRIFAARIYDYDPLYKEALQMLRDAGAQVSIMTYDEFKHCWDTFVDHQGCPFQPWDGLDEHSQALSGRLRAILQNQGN

In the case of O=[N+]([O-])c1ccccc1/C=C/C=N/Nc1nc(N2CCCCC2)nc(N2CCCCC2)n1, the IC50 [1] is reported as 1.14 µM (active) and the IC50 [2] is reported as 0.814 µM (active).
For O=c1oc2cc([N+](=O)[O-])ccc2nc1/C=C(\O)c1cccc(Br)c1, the EC50 [3] was > 350 µM (not active).
In the case of CCOc1cc(/C=C2\SC(N3CCCCC3)=NC2=O)ccc1O, the AC50 [4] is reported as 0.678 µM (active).
With CC(=O)OC1C2CCC1C([N+]1(C)CCCCC1)CC2 (stereo not drawn) the IC50 [1] was 2.69 µM (active), the IC50 [2] was 3.15 µM (active) and the IC50 [5] was 4.51 µM (active).
With CCc1noc(C)c1C(=O)NNC(=O)c1cc(OC)c(OC)c(OC)c1 the IC50 [1] was 21.3 µM (active) and the IC50 [2] was 13.9 µM (active).
In the case of O=C(Nc1ccc(Br)cc1Cl)c1cnccn1, the IC50 [5] is reported as 4.67 µM (active) and the IC50 [6] is reported as > 100 µM (inactive).
With CN(C)CCCN(Cc1cc2cc3c(cc2nc1O)OCO3)C(S)=NCc1ccco1 the EC50 [7] was 0.421 µM (active).
With Cc1c(N/N=C2/C(=O)NC(=O)N(Cc3ccccc3)C2=O)c(=O)n(-c2ccccc2)n1C the IC50 [8] was 3.31 µM (active).
With Cc1nc2scc(C)n2c(=O)c1S(=O)(=O)N1CCN(c2cccc(C(F)(F)F)c2)CC1 the EC50 [9] was > 50 µM (active) and the EC50 [10] was > 195 µM (not active).
In the case of O=C(NCCc1ccccc1)c1cc2ncc(Br)cn2n1, the IC50 [1] is reported as 12.8 µM (active) and the IC50 [2] is reported as > 100 µM (inactive).
With CCCCN(C(=O)Cn1ncc(Cl)c(Cl)c1=O)c1c(N)n(CC(C)C)c(=O)[nH]c1=O the IC50 [5] was 5.74 µM (active).
With COc1ccccc1N(C(=O)c1snc(C(N)=O)c1N)C(C(=O)NC1CCCC1)c1ccc2ncccc2c1 (stereo not drawn) the EC50 [7] was 2.66 µM (active).
For CCSCc1nnc(SCC(=O)Nc2ccc(OC)cc2)n1C, the IC50 [1] was 3.08 µM (active) and the IC50 [2] was 4.91 µM (active).
For O=C(NCCN1CCOCC1)c1cc2sccc2n1Cc1ccc(Cl)cc1, the IC50 [8] was > 100 µM (active).
For Cc1nc([N+](=O)[O-])c(Br)n1CC(=O)c1ccc(Cl)cc1, the CC50 [11] was 17.4 µM (active), the CC50 [12] was 13 µM (active) and the IC50 [13] was 6.88 µM (active).
For COc1ccc(CN2CCN(Cc3ccc(C(F)(F)F)cc3)CC2)c(OC)c1, the EC50 [7] was 2.66 µM (active).
With O=C(Nc1cccc2nsnc12)c1ccc2c(c1)OCO2 the AC50 [4] was 11.7 µM (active).
For Oc1ccc2ccc3[nH]cnc3c2c1, the AC50 [4] was 2.47 µM (active).
With COc1ccc(N(C(=O)c2ccccc2C)S(=O)(=O)c2cccs2)cc1 the AC50 [14] was 0.17 µM (active) and the IC50 [15] was > 80 µM (inactive).
With CC(=O)Nc1cccc(-c2cnc3ccccc3n2)c1 the AC50 [4] was 6.1 µM (active).
With Cc1ccc(-c2cc(C(=O)N/N=C/c3ccc(Cl)cc3)[nH]n2)o1 the IC50 [5] was 9.23 µM (active).
With O=C(N/N=C/c1cc([N+](=O)[O-])ccc1O)C1CCCCC1 the CC50 [11] was 21.4 µM (active), the CC50 [12] was > 20 µM (active) and the IC50 [13] was 17.9 µM (active).
In the case of N=C(Nc1nc(-c2ccccn2)cc2ccccc12)c1ccccn1, the IC50 [8] is reported as 39.6 µM (active), the AC50 [16] is reported as 2.76 µM (active) and the AC50 [17] is reported as < 0.26 µM (active). For the same compound, the AC50 [18] was < 0.26 µM (active).
With CCN(CC)CC(=O)Nc1ccc(Cl)cc1C(=O)c1ccccc1 the EC50 [7] was 2.37 µM (active).
For COc1cc(Nc2ccc(C)cc2)c([N+](=O)[O-])nc1[N+](=O)[O-], the EC50 [19] was 3.02 µM (active), the EC50 [20] was > 60 µM (not active) and the AC50 [14] was 3.51 µM (active). For the same compound, the IC50 [15] was > 80 µM (inactive).
In the case of CCN1CCN(c2ccc(S(=O)(=O)N3CCCCC3)cc2NC(=O)/C=C/c2ccc(F)cc2)CC1, the IC50 [1] is reported as 4.6 µM (active) and the IC50 [2] is reported as 7.23 µM (active).
In the case of CCC1CCCCN1Cc1nc2c(c(=O)n(C)c(=O)n2C)n1Cc1ccccc1 (stereo not drawn), the EC50 [7] is reported as 3.76 µM (active).
With Cc1cc(NC(=O)c2ccc3[nH]c(C)c(C)c3c2)ccn1 the EC50 [9] was > 50 µM (active).
